Data: patent publication US20110130466A1 (priority 2009, published 2011)
Where two headings read alike, the source gives them in different places.

Tests used:
[1] = system: PSP patients; conditions: patient 5, after 6 months of treatment with rasagiline (FIG. 2)
Description: (§1) The following clinical factors were analyzed: • 1. Patients and relatives received a protocol to document the frequency of falls. • 2. 12 of the patients were analyzed using posturographic measurements. • 3. Depression was evaluated using clinical criteria (DSM-IV). • 4. Eye movements were orthoptically evaluated (in some cases an electronystagmogram was performed). • 5. Dysarthria was investigated using the Bogenhausener dysarthria scale (BoDys) (ranges from 4=normal until 0=anarthria). • 6. Dysphagia was clinically documented and the introduction of a percutaneous feeding tube (PEG) was recorded. • 7. Incidence of pneumonia was recorded. • 8. Impulse control disorder and hallucinations were recorded. • 9. Possible side effects were recorded. • 10.

[2] = system: PSP patients; conditions: for dysphagia, need for a PEG: PSP patients without PEG at initiation, observation phase; for frequency of falls, MW (mean): mean of documented PSP patients, baseline 23.059
Description: Eight men and nine women were treated.
as §1

[3] = system: patients with PSP; conditions: 1 mg/day
Description: A clinical trial is performed according to the following guidelines: [table]

[4] = system: apoptotic cell death initiated by mitochondria; conditions: cell culture, Youdim et al. 2001; Akao et al. 2002; cited from earlier work
[5] = system: Bcl-2 and Bcl-xL expression; conditions: parallel to downregulation of pro-apoptotic Bad and Bax; Youdim et al. 2003; cited from earlier work
[6] = system: animal models of closed head trauma; conditions: global focal ischemia, MPTP-induced neurotoxicity, ALS transgenic model, 6-OHDA model; cited from earlier work
[7] = PSP patients, rasagiline 1 mg/day

SMILES: C#CCN[C@@H]1CCc2ccccc21 [rasagiline, R(+)-N-propargyl-1-aminoindan]
- posturographic measurement, before vs after treatment [1]: shows an improvement
- dysarthria, mean on the BoDys scale ([2]; 10 patients, during observation time, from a mean of 2.5±0.5, 4=normal, 0=anarthria): 2.7±0.5
- deaths during the observation time ([2]; 17 PSP patients, patients 9 and 4, both after treatment had ended): Two patients died
- dysphagia, need for a PEG [2]: none of the other patients required a PEG
- dysphagia, need for a PEG ([2]; listed as Rasagiline): effective in improving or slowing progression of dysphagia
- period of treatment in which the reduction of the frequency of falls mainly took place [2, 7]: ≤ 7 months
- postural instability / number of falls (in words) [2, 7]: improvement in postural instability was evident within the first 7 months
- postural instability / number of falls (in words) ([2]; PSP patients, rasagiline 1 mg/day, listed as Rasagiline): effective in reducing the number of falls
- frequency of falls, MW (mean) ([2]; 1 Month of rasagiline 1 mg/day): 19.824 falls/week
- frequency of falls, MW (mean) ([2]; 2 Months of rasagiline 1 mg/day): 20.692 falls/week
- frequency of falls, MW (mean) ([2]; 3 Months of rasagiline 1 mg/day): 20.833 falls/week
- frequency of falls, MW (mean) ([2]; 4 Months of rasagiline 1 mg/day): 20.667 falls/week
- frequency of falls, MW (mean) ([2]; 5 Months of rasagiline 1 mg/day): 20.917 falls/week
- frequency of falls, MW (mean) ([2]; 6 Months of rasagiline 1 mg/day): 19.923 falls/week
- frequency of falls, MW (mean) ([2]; 7 Months of rasagiline 1 mg/day): 21.917 falls/week
- frequency of falls, MW (mean) ([2]; 8 Months of rasagiline 1 mg/day): 23.5 falls/week
- frequency of falls, MW (mean) ([2]; 9 Months of rasagiline 1 mg/day): 22.818 falls/week
- frequency of falls, MW (mean) ([2]; 10 Months of rasagiline 1 mg/day): 25.1 falls/week
- frequency of falls, MW (mean) ([2]; 11 Months of rasagiline 1 mg/day): 25.889 falls/week
- frequency of falls, MW (mean) ([2]; 12 Months of rasagiline 1 mg/day): 24.6 falls/week
- impulse control disorder ([2]; one patient with impulse control disorder at initiation): not influenced by treatment with rasagiline
- treating physician's assessment of deaths and intracranial haemorrhage after fall ([2]; patients 9, 4 and 12): not related to rasagiline
- effect on eye movements ([2]; rasagiline 1 mg/day): No effect
- depression during treatment ([2]; rasagiline 1 mg/day, 12 months observation, listed as Rasagiline): effective in reducing or eliminating depression
- reversibility of side effects after termination ([2]; three patients with side effects): completely reversible
- reduction of the reported deterioration (PSPRS) ([3]; 1 year, vs reported mean yearly increase of 9.7): 33%
- safety, gait disturbances and postural stability ([3]; posturographic measurement): safe and effective in reducing gait disturbances and in enhancing postural stability
- suppression of apoptotic cell death [4]: potently suppresses apoptotic cell death
- expression of anti-apoptotic Bcl-2 and Bcl-xL [5]: induces increase
- neuroprotection [6]: Neuroprotection by rasagiline was achieved
